Experimental findings from US5430023A, “Tripeptide antithrombotic agents” (Eli Lilly and Company, priority 1993, dated 1995) are described below.

Common to all, as to type: biochemical
Test [1] deals with T1, bovine thrombin (Bos taurus, UniProt P00735).
T1 construct: 25 μl of bovine thrombin solution (0.21 mg/ml of thrombostat powder); purchased thrombostat powder
In words: Inhibition of thrombin amidase activity (chromogenic substrate), bovine thrombin. Particulars: apparent equilibrium constant inhibitor-thrombin, mean over a range of concentrations. Here is the method:
The data in the table were obtained in an assay in which thrombin hydrolyzes the chromogenic substrate, N-benzoyl-D-phenylalanyl-L-valyl-L-arginyl-p-nitroanilide.
The assay was carried out in 50 μl buffer (0.03M Tris, 0.15M NaCl, pH 7.4) with 25 μl of bovine thrombin solution (0.21 mg/ml of thrombostat powder in 0.06M Tris, 0.3M NaCl, pH 7.4) and 150 μl of an aqueous solution of the chromogenic substrate at a concentration of 0.25 mg/ml. Solutions of test compound (25 μl) at various concentrations were added. […] Standard curves were constructed by plotting free thrombin concentration against hydrolysis rate. […] The amount of free inhibitor in each assay was calculated by subtracting the number of moles of bound thrombin from the number of moles of added inhibitor (test compound).
Kass was calculated for a range of concentrations of compounds and the mean value is reported in units of liter per mole.

Test [2] addresses T1, bovine thrombin. In words: Plasma coagulation assay: thrombin time. Here is the method:
(§1) The anticoagulant activity of the compounds of the invention has been determined in standard tests. The following Table 2 presents the data obtained with representative compounds of the invention in tests used to determine prothrombin time, thrombin time and activated partial thromboplastin time (APTT). The numerical values in the table are the concentrations of the test compounds (ng/ml) required to prolong coagulation by 2-fold in the three tests. The thrombin time evaluation was carried out in plasma and separately determined in a buffer system at pH 7.5.
(§2) The data presented in Table 2 were obtained using a CoaScreener instrument from Tecan, Inc. in the assay protocols listed below.
50 μl bovine thrombin (2 NIH

Test [3] addresses T1, bovine thrombin. In words: Thrombin time in buffer (fibrinogen instead of plasma). Particulars: Buffer (pH 7.5). Here is the method: as §1, §2
In the Thrombin Time determined in pH 7.4 buffer fibrinogen was used instead of plasma.

For test [4], the system named is plasma coagulation (Actin, CaCl2). In words: Plasma coagulation assay: APTT (activated partial thromboplastin time). Here is the method:
as §1, §2

The test system of test [5] is plasma coagulation (thromboplastin). Description: Plasma coagulation assay: prothrombin time. Here is the method:
The numerical values in the table are the concentrations of the test compounds (ng/ml) required to prolong coagulation by 2-fold in the three tests. The thrombin time evaluation was carried out in plasma and separately determined in a buffer system at pH 7.5.
as §2
50 μl thromboplastin (Dade)

Square brackets hold non-standard residues; d marks the D form. Peptide text beside a SMILES is read from it. * marks the point of attachment. dNMePhg = CN[C@@H](C(=O)O)c1ccccc1; dHpg = N[C@@H](C(=O)O)c1ccc(O)cc1; dChg = N[C@@H](C(=O)O)C1CCCCC1; dPhg = N[C@@H](C(=O)O)c1ccccc1; Boc = CC(C)(C)OC(=O)*

As for `CC[C@@H](C(=O)N1CCC[C@H]1C(=O)N[C@H](C=O)CCCNC(=N)N)c1ccccc1` [(R)-α-Ethylphenylacetyl], in test [1], the “Thrombin Amidase Kass × 10^6” value is given as 7 × 10^6 1/mole. In addition, in test [2], the “Thrombin Time: concentration required to prolong coagulation by 2fold” value was determined as 115 ng/mL.
`CO[C@@H](C(=O)N1CCC[C@H]1C(=O)N[C@H](C=O)CCCNC(=N)N)c1ccccc1` [(R)-α-Methoxyphenylacetyl]: in test [1], the “Thrombin Amidase Kass × 10^6” value was 4 × 10^6 1/mole. In addition, the “Thrombin Time: concentration required to prolong coagulation by 2fold” value came to 173 ng/mL in test [3] and 139 ng/mL in test [2]. The “APTT: concentration required to prolong coagulation by 2fold” value (shortened to “APTT: concentration required … by 2fold”) in test [4] is greater than 909 ng/mL.
For the compound `COc1ccc([C@@H](NC(C)=O)C(=O)N2CCC[C@H]2C(=O)N[C@H](C=O)CCCNC(=N)N)cc1` [Acetyl-D-(4-methoxy)phenylglycyl], the “Thrombin Amidase Kass × 10^6” value in test [1] is on record as 15 × 10^6 1/mole. For the same compound, the “APTT: concentration required … by 2fold” value in test [4] amounted to 2600 ng/mL. For the same compound, in test [5], the “Prothrombin Time: concentration required to prolong coagulation by 2fold” value (“Prothrombin Time … by 2fold” for short) is 900 ng/mL. Also, in test [2], the “Thrombin Time: concentration required to prolong coagulation by 2fold” value was 460 ng/mL.
Consider `CC(=O)O.CC(=O)O.CC(C)(C)OC(=O)N[C@@H](C(=O)N1CCC[C@H]1C(=O)N[C@H](C=O)CCCNC(=N)N)c1ccc2ccccc2c1` [Boc-D-2-naphthylglycyl, N-Boc-D-2-naphthylglycyl-Pro-Arg-H diacetate], for which the “Thrombin Amidase Kass × 10^6” value in test [1] was 22 × 10^6 1/mole. For the same compound, the “Thrombin Time: concentration required to prolong coagulation by 2fold” value came to 142 ng/mL in test [3] and 230 ng/mL in test [2]. Besides, the “APTT: concentration required … by 2fold” value in test [4] came to 1200 ng/mL. In test [5], the “Prothrombin Time … by 2fold” value is 1200 ng/mL.
On to `CC(C)(C)OC(=O)NC(C(=O)N1CCCC1C(=O)NC(C=O)CCCN=C(N)N)c1cccs1` [Boc-D-2-thienylglycyl], for which, in test [1], the “Thrombin Amidase Kass × 10^6” value is 14 × 10^6 1/mole.
With `CC(=O)O.CC(=O)O.CC(C)(C)OC(=O)N[C@@H](C(=O)N1CCC[C@H]1C(=O)N[C@H](C=O)CCCNC(=N)N)c1ccc(O)cc1` [Boc-D-(4-hydroxy)phenylglycyl, N-Boc-D-(4-hydroxyphenylglycyl)-Pro-Arg-H diacetate] (Boc-[dHpg]-Pro-Arg-aldehyde), the “Thrombin Amidase Kass × 10^6” value in test [1] is 115 × 10^6 1/mole. Further, the “APTT: concentration required … by 2fold” value in test [4] was found to be 1091 ng/mL. For the same compound, in test [5], the “Prothrombin Time … by 2fold” value was 1636 ng/mL. In test [2], the “Thrombin Time: concentration required to prolong coagulation by 2fold” value amounted to 182 ng/mL.
Take `COc1ccc([C@@H](NC(=O)OC(C)(C)C)C(=O)N2CCC[C@H]2C(=O)N[C@H](C=O)CCCNC(=N)N)cc1` [Boc-D-(4-methoxy)phenylglycyl]: the “Thrombin Amidase Kass × 10^6” value in test [1] is 75 × 10^6 1/mole. The “APTT: concentration required … by 2fold” value in test [4] was 640 ng/mL. The “Thrombin Time: concentration required to prolong coagulation by 2fold” value in test [2] came to 80 ng/mL.
As for `COc1ccc2cc([C@@H](NC(=O)OC(C)(C)C)C(=O)N3CCC[C@H]3C(=O)N[C@H](C=O)CCCNC(=N)N)ccc2c1` [Boc-D-(6-methoxy)-2-naphthylglycyl], the “Thrombin Amidase Kass × 10^6” value in test [1] was 6 × 10^6 1/mole. Further, the “Thrombin Time: concentration required to prolong coagulation by 2fold” value was found to be 466 ng/mL in test [3] and 460 ng/mL in test [2]. In addition, the “APTT: concentration required … by 2fold” value in test [4] was determined as 2239 ng/mL. In addition, the “Prothrombin Time … by 2fold” value in test [5] stood at 35489 ng/mL.
Take `CC(C)(C)OC(=O)NC(C(=O)N1CCCC1C(=O)NC(C=O)CCCN=C(N)N)c1ccc(F)cc1` [Boc-D-Phg(4-Fluoro)]: the “Thrombin Amidase Kass × 10^6” value in test [1] is recorded as 44 × 10^6 1/mole.
On to `CC(C)(C)OC(=O)N[C@@H](C(=O)N1CCC[C@H]1C(=O)N[C@H](C=O)CCCNC(=N)N)C1CCCCC1` [Boc-D-cyclohexylglycyl] (Boc-[dChg]-Pro-Arg-aldehyde), for which the “Thrombin Amidase Kass × 10^6” value in test [1] is given as 120 × 10^6 1/mole. Besides, the “Thrombin Time: concentration required to prolong coagulation by 2fold” value was 60 ng/mL in test [3] and 79 ng/mL in test [2]. In addition, the “APTT: concentration required … by 2fold” value in test [4] was determined as 748 ng/mL. For the same compound, the “Prothrombin Time … by 2fold” value in test [5] stood at 522 ng/mL.
As for `CC(C)(C)OC(=O)NC(Cc1ccccc1)C(=O)N1CCCC1C(=O)NC(C=O)CCCN=C(N)N` [Boc-D-phenylalanyl, reference compound], the “Thrombin Amidase Kass × 10^6” value in test [1] is recorded as 21 × 10^6 1/mole.
On the same count and under the same terms, for `CC(C)(C)OC(=O)N[C@@H](C(=O)N1CCC[C@H]1C(=O)N[C@H](C=O)CCCNC(=N)N)c1ccccc1.CC(C)(C)OC(=O)N[C@@H](C(=O)N1CCC[C@H]1C(=O)N[C@H](C=O)CCCNC(=N)N)c1ccccc1.O=S(=O)(O)O` [Boc-D-phenylglycyl (sulfate salt), N-Boc-D-Phenylglycyl-L-Prolyl-L-Arginine aldehyde (Boc-D-Phg-Pro-Arg-H) hemisulfate] (Boc-[dPhg]-Pro-Arg-aldehyde) the value was 107 × 10^6 1/mole; for `N=C(N)NCCC[C@@H](C=O)NC(=O)[C@@H]1CCCN1C(=O)[C@H]1CC2CCCCC2CN1.O=S(=O)(O)O` (stereo partly drawn) [D-1,2,3,4,6,7,8-Perhydroisoquinolin-3-carbonyl-L-prolyl-L-arginal (sulfate)], 25 × 10^6 1/mole; for `N=C(N)NCCC[C@@H](C=O)NC(=O)[C@@H]1CCCN1C(=O)[C@@H]1NCCc2ccccc21.O=S(=O)(O)O` [D-1,2,3,4-Tetrahydroisoquinolin-1-carbonyl-L-Prolyl-L-Arginine Aldehyde Sulfate], 113 × 10^6 1/mole.
As for `Cl.N=C(N)NCCC[C@@H](C=O)NC(=O)[C@@H]1CCCN1C(=O)[C@H]1Cc2ccccc2C(=O)N1` [D-1,2,3,4-tetrahydroisoquinolin-1-keto-3-carbonyl-L-prolyl-L-arginine aldehyde (hydrochloride)], the “Thrombin Amidase Kass × 10^6” value in test [1] was 6 × 10^6 1/mole.
For the compound `N=C(N)NCCC[C@@H](C=O)NC(=O)[C@@H]1CCCN1C(=O)[C@H](N)c1ccccc1` [D-Phenylglycyl] (H-[dPhg]-Pro-Arg-aldehyde), in test [1], the “Thrombin Amidase Kass × 10^6” value was 75 × 10^6 1/mole. For the same compound, the “Thrombin Time: concentration required to prolong coagulation by 2fold” value in test [2] is 91 ng/mL.
Consider `CN[C@@H](C(=O)N1CCC[C@H]1C(=O)N[C@H](C=O)CCCNC(=N)N)c1ccccc1` [N^α -Methyl-D-phenylglycyl (sulfate), N-methyl-D-phenylglycyl-L-prolyl-L-arginine aldehyde] (H-[dNMePhg]-Pro-Arg-aldehyde), for which the “Thrombin Amidase Kass × 10^6” value in test [1] is given as 80 × 10^6 1/mole. Moreover, the “Thrombin Time: concentration required to prolong coagulation by 2fold” value in test [3] amounted to 67 ng/mL; in test [2], 92 ng/mL. The “APTT: concentration required … by 2fold” value in test [4] was greater than 909 ng/mL. Further, in test [5], the “Prothrombin Time … by 2fold” value is 899 ng/mL.
On to “N^α -acetyl-1-aminocyclohexane-1-carbonyl-L-prolyl-L-arginine Aldehyde (Hydrochloride)”, for which the “Thrombin Amidase Kass × 10^6” value in test [1] was 0.2 × 10^6 1/mole.
On the same count and under the same terms, for “N^α -ethylcarbamate-1-amino-1-cyclohexane-carbonyl-L-prolyl-L-arginine Aldehyde (Hydrochloride)” the value was 1.5 × 10^6 1/mole.
